Experiments:
5×FAD+/− mice = assay: Learning and memory tests (Morris water maze, novel object recognition) in 5×FAD+/− mice; assay type: in vivo, mouse; details: 3.2 mg/kg/day for one month started at 2-3 months of age (before AD symptoms), tested at 3-4 months; vs DMSO
Method: (§1) Adult genetically engineered mice, 5×FAD^+/− (Oakley et al., 2006), RyR2-E4872Q^+/− (EQ^+/−) (Chen et al., 2014), 5×FAD^+/−/RyR2-E4872Q^+/− (5×FAD^+/−/EQ^+/−), and wildtype (WT) littermates of both sexes were used. R-carvedilol (R-CV) (at doses of 0.8, 1.6 or 3.2 mg/kg/day), racemic carvedilol (3.2 mg/kg/day), and vehicle control (DMSO) were delivered to 5×FAD^+/− mice in drinking water for one month, starting at different ages before (2-3 months old) or after (3-4 months old) the occurrence of AD pathologies (Oakley et al., 2006). To assess the effects of genetically and pharmacologically limiting RyR2 open time on the prevention and rescue of AD deficits in different stages (early, moderate, and late) of AD progression, animals at different ages (from 2-15 months) were used. As reported (Oakley et al., 2006), there was an age-dependence of AD progression in the 5×FAD^+/− mice. No sex-dependent differences in AD progression in these mice was observed. For 2-photon Ca^2+ imaging experiments, 5×FAD, RyR2 WT, and RyR2 mutant mice were cross-bred with the heterozygous Thy1-GCaMP6f transgenic mice (Chen et al., 2012; Chen et al., 2013) (GP5.17, JAX 025393) to express the GCaMP6f Ca^2+ sensing probe (driven by the Thy1 promotor) in hippocampal neurons in each of the genotypes used.
The learning and memory of mice with all genotypes were evaluated using the Morris water maze (MWM) test, the Barnes maze (BM) test, and/or the novel object recognition (NOR) test. Experiments were carried out blindly. For the MWM test, mice at different ages were trained to localize a hidden escape platform (10×10 cm) in a circular pool (116.84 cm in diameter, 50 cm in depth) (San Diego Instruments, CA) via distal visual cue. The platform was submerged 1-2 cm beneath the surface in water (22-24°C.), which was rendered opaque by addition of milk powder. The localization of the pool in relation to visual cues was maintained constantly during the entire task. The cues were distinct in color and shape. Digital division of the tracking area (pool) into four quadrants was performed by the SMART video tracking system, Smart 3.0 (Panlab Harvard Apparatus; Barcelona Spain). The escape platform was placed in the centre of the south-west quadrant for the entirety of the learning phase (4 training days) and digitally defined as target. Spatial training consisted of 4 days with 5 trials per mouse per day. Mice were released with their heads facing the pool wall at one of four entry locations (north, east, south and west) in a non-repetitive random order. Swimming was automatically video-tracked until the subject found the escape platform and remained on it (≥5 sec), or until a maximum of 60 seconds. […] In between trials (inter-trial interval ≥10 min), mice were housed in heated cages to avoid performance deficits due to exhaustion or hypothermia. The latency and swimming speed to reach the escape platform were recorded for comparison. After the learning phase, memory retention was evaluated by one probe trial 24 hours after the last training session. The escape platform was removed before mice were released from the north entry point into the pool. Their swimming was video-tracked for 60 seconds. The area at the location of the removed hidden platform was defined as the target and the south-west quadrant the target quadrant. The percentage of time mice spent in the target quadrant (including the target) were measured for comparison.
For the NOR test, mice were habituated for 10 min per mouse in an equally illuminated, odor-free, white, plastic box (40×40×50 cm^3) embedded with fresh aspen shavings and shreds. In between each mouse trial the box was wiped with ethanol to avoid odor-induced stress. 24 hours after habituation, two identical objects ware placed at equal distance to each other and the corners of the box. Each mouse was placed into the center, and allowed to move freely for 10 min. Mice were video recorded during this familiarizing phase. […]

oligomeric Aβ = details: chronic treatment, animal studies; cited from earlier work
AD = details: racemic mixture at a dose of 25 mg per day, pilot clinical trial; cited from earlier work
[1] = system: ryanodine receptor (RyR2); details: cited from earlier work
[2] = system: hippocampal CA3-CA1 pathway of 5×FAD+/− mice; assay: Long-term potentiation / fEPSP recording in hippocampal slices from treated 5×FAD+/− mice; assay type: in vivo, mouse; details: 3.2 mg/kg/day for one month started at 2-3 months of age (before AD symptoms), slices at 3-4 months; vs DMSO
Method: as §1, with “As reported (Oakley et al., 2006), there was an age-dependence of AD progression in the 5×FAD^+/− mice. No sex-dependent differences in AD progression in these mice was observed.” left out
Schaffer collateral fibers were stimulated at the CA3 subfield to record field excitatory postsynaptic potentials (fEPSPs) in the CA1 stratum radiatum of transverse hippocampal slices ([…]) from all genotypes and drug-treated mice at different ages. After recovering at room temperature for 1 h (or 2 h for brain slices from drug-treated mice), hippocampal slices were allowed to recover in the recording chamber for additional 10 min. To evaluate basal synaptic transmission, different stimulation strengths (0 μA to 200 μA in steps of 20 μA) were applied and plotted fEPSP slopes versus the current input to compare the slope of input/output (I/O) curves of fEPSP. In the experiments that followed, stimulus current was adjusted so that fEPSP stabilized at 40-50% of maximum. Baseline was recorded for at least […] until the differences among fEPSP slopes were within 10%. Long-term potentiation (LTP) was induced using a tetanic high-frequency stimulation (HFS; 4 trains of 100 pulses at 100 Hz, with 20-sec intervals). Synaptic responses were recorded for at least 60 min after tetanization and quantified as the slope of the evoked fEPSP as percentage of the baseline.

[3] = system: Kv4.2/KChIP4 channel complex; assay: Whole-cell A-type K+ current recording in Kv4.2/KChIP4 transfected HEK293 cells expressing RyR2 WT; assay type: cell-based; details: caffeine 2.5 mM, 2 min after application vs baseline
Method: Previous studies used whole-cell patch clamp recordings at the soma of CA1 pyramidal cells to measure the whole-cell A-type K^+ current (Chen, 2005; Good et al., 1996; Hall et al., 2015; Scala et al., 2015). To make comparisons to earlier studies, the same approach was employed. Briefly, whole-cell A-type K^+ current (IA) was elicited by depolarizing pulses to +40 mV from a holding potential of −100 mV in the presence of 20 mM tetraethylammonium (TEA) and 100 nM tetrodotoxin (TTX). In steady-state activation experiments, membrane potential was held at −100 mV, and IA was evoked by a 200-ms depolarizing pulse from a first pulse potential of −80 mV to +80 my in 10-mV steps at 10-s intervals, Data were analyzed using the equation GK=IK/(Vm−Vrev), where GK is the membrane K^+ conductance, Vm is the membrane potential, and Vrev is the reversal potential for K^+. To study steady-state inactivation of IA, currents were elicited using 1-s conditioning pre-pulses from −110 mV to 0 mV before a 200-ms test pulse of +50 mV. After normalizing each current amplitude to the maximal current, amplitude obtained from the −110 mV pre-pulse was used as a function of the conditioning pre-pulse potential and fitted with the function IA/IA−max=1/(1+exp((Vm1/2−Vm)/k)), from which, an inactivation curve of IA was obtained, and the VH value (the voltage at which the current amplitude was half-inactivated) was calculated. The somatic whole-cell recordings provide information on the magnitude of somatic A-type K^+ current, an important determinant of somatic excitability.
For HEK293 cell experiments, HEK293 cell lines were maintained as previously described (Jiang et al., 2004) and transiently transfected with cDNAs of Kv4.2 and KChIP4 together with cDNA encoding for GFP to identify cells successfully transfected. 12-16 h before recording, tetracycline was added to culture media to induce the expression of RyR2 WI or RyR2 E4872Q mutant. IA was recorded with the same protocols as described above. Prior to IA recording, the culture medium was replaced with a bath solution (NaCl, 125 mM; KCl, 2.5 mM; HEPES, 10 mM; MgCl2, 1 mM; glucose, 10 mM; TEA, 20 mM; pH 7.4 adjusted with NaOH).

[4] = system: 5×FAD+/− CA1 pyramidal neurons; assay: Whole-cell patch-clamp recording of action potential firing in 5×FAD+/− CA1 pyramidal neurons in brain slices; assay type: cell-based, mouse; details: 10 μM, 3-4 months old 5×FAD+/− CA1 pyramidal neurons
Method: Acute brain slices were prepared according to the published procedures with some modifications (Ting et al., 2014; Ting et al., 2018).
For whole-cell patch-clamp recordings, slices were transferred to a submerged recording chamber perfused with carbogenated external solutions at a flow rate of 4-6 mL/min at room temperature. Action potentials (APs) were measured in hippocampal CA1 pyramidal neurons in transverse hippocampal slices (260 μm) from all genotypes of 3-4 months old mice using whole-cell patch-clamp with an […] amplifier (Axon Instruments). […] Membrane potentials in 5-6 months old or older neurons were not measured as aged neurons are difficult to patch. AP firing was recorded in an external solution (NaCl, 124 mM; KCl, 2.5 mM; NaH2PO4, 1.25 mM; NaHCO3, 24 mM; HEPES, 5 mM; glucose, 12.5 mM; MgCl2, 2 mM; and CaCl2, 2 mM; pH 7.4 adjusted with NaOH) and soft-glass recording pipettes (Sutter Instruments; Novato CA) filled with an internal solution (potassium gluconate, 135 mM, KCl, 10 mM, HEPES, 10 mM, CaCl2, 1 mM, MgCl2, 1 mM, EGTA, 10 mM, ATP, 1 mM, GTP, 0.1 mM, and pH 7.3 adjusted with KOH). […] For spontaneous AP recording, cells were hold at −70 mV and recorded for 3 min. […] For testing the Kv4 channel agonist NS5806, APs were measured before and 15 min after perfusion of 10 μM NS5806 in the external solution. […]

SMILES: COc1ccccc1OCCNCC(O)COc1cccc2[nH]c3ccccc3c12 (racemic) [Racemic carvedilol, carvedilol]
- memory loss / learning and memory deficits (MWM, NOR) (5×FAD+/− mice): did not prevent
- content of oligomeric Aβ in the brain (oligomeric Aβ): significantly reduced
- improvement in AD (AD): no significant improvement
- store-overload-induced Ca2+ release [1]: reduces
- LTP impairment [2]: did not prevent

SMILES: Cn1c(=O)c2c(ncn2C)n(C)c1=O [Caffeine]
- Kv4.2-mediated current [3]: decreased
- decay time (inactivation time constant Tau) of Kv4.2-mediated current [3]: decreased
- voltage-dependent activation of Kv4.2-mediated current [3]: without altering
- voltage-dependent inactivation of Kv4.2-mediated current [3]: without altering

SMILES: O=C(Nc1cc(C(F)(F)F)cc(C(F)(F)F)c1)Nc1c(Br)cc(Br)cc1-c1nn[nH]n1 [NS5806]
- threshold current for inducing AP firing ([4]; before vs 15 min after perfusion): dramatically increased
- frequency of AP firing ([4]; current injection-triggered): decreased

— patent US20230381139A1, “METHODS OF TREATING AND/OR PREVENTING ALZHEIMER’S DISEASE WITH R-CARVEDILOL” (priority 2020, published 2023)
